{"source": "patent US20110256147A1", "about": "“DIAGNOSTIC AND TREATMENT METHODS FOR CANCER BASED ON IMMUNE INHIBITORS” (THE JOHNS HOPKINS UNIVERSITY, priority 2008, published 2011)", "system": "CD1d-mediated activation of NKT cells", "assay": "CD1d-mediated activation of a panel of NKT cell hybridomas by pretreated LCD1dwt cells, IL-2 ELISA", "assay_type": "cell-based, mouse", "settings": "LCD1dwt cells treated 4 h; DN32.D3, N37-1A12, N38-3C3", "experimental": "FIG. 2. […] LCD1dwt cells were treated with 1 ml media containing 5% FBS, FBS, human AB serum or serum from the indicated patients for 3-4 h, washed extensively and then co-cultured with N37-1A12 and N38-3C3 NKT cell hybridomas. IL-2 was measured by standard cytokine ELISA, and data is shown as percent control, normalized to cells treated with culture media as 100% or the maximum level of stimulation.\nFIG. 4. Treatment with ovarian cancer associated ascites has no effect on HLA-A2 mediated antigen presentation. […] IFN-γ released was measured by ELISA. […] NKT cell recognition of CD1d was assessed by measuring IL-2 production in the supernatants by ELISA.\nFIG. 5. […] NKT cell recognition of CD1d1 was assessed by measuring IL-2 production in the supernatants by ELISA. […]\nFIG. 6. […] IL-2 was measured, as an indication of NKT cell activation, by standard cytokine ELISA. […] NKT cell recognition of CD was assessed by measuring IL-2 production in the supernatants by ELISA. […]\nFIG. 7. […] (A) IL-2 was measured, or GM-CSF (B) as an indication of NKT cell activation, by standard cytokine ELISA. […] The extracted lipids were analyzed by thin-layer chromatography (TLC) (HPTLC Silica Gel 60; Merck, Darmstadt, Germany) with chloroform-methanol-0.25% aqueous KCl (60:35:8) as running solvent. Gangliosides were detected with a resorcinol—HCl Cu2+ reagent. […]"}
{"substance": "GT1b", "values": [{"measurement": "CD1d-mediated activation of NKT cells, increasing doses of ganglioside", "result": "did not inhibit"}]}
